Reference: patent US12396949B2, “Technology for improving properties of lipid nanoparticles using lipids in which cis-unsaturated bonds are substituted with a silicon atom” (The Regents of the University of California, priority 2022, dated 2025)
Several values for one entry are separate records, joined by “and”; a condition that tells them apart may be missing. Equal entries are not always repeated.

Experiments:
[1] = Average size of liposomes made from cationic silyl lipids (Tables 1A, 1B); assay type: physicochemical; details: for Avg size: Table 1B, sila-DOTMA analog liposomes; for Avg. Size: Table 1A, liposome formulations of the cationic silyl lipid only in Milli Q purified water
Description: (§1) For colloidal dispersions, zeta potential is a useful measurement of the difference in electrokinetic potential between the dispersion medium and the stationary layer of fluid attached to the dispersed particle. The magnitude of the zeta potential indicates the degree of electrostatic repulsion between adjacent, similarly charged particles in a dispersion. A high zeta potential is an indicator of stability (resistance to aggregation). Both zeta potential and size can be determined using a zeta Potential Analyzer. Clogston J D et al., Methods Mol Biol. 2011; 697:63-70.
(§2) FIGS. 5A to 5C and TABLE 1A provide an illustration of such empirical determination: the effect of the length of the lipid tail, the end group, and the positioning of the silyl group. In this illustration, other properties of the lipid structure and liposome composition were kept constant. The liposome formulations just contained the cationic silyl lipids indicated, and Milli Q™ purified water.
(§3) FIGS. 7A to 7C and TABLE 1B provide another illustration of how structure of the silyl lipid can affect properties of nanoparticles.
(§4) Structural features such as tail length, positioning of the silicon group (n1, n2), and branching (as in 8,Si, (8)3-DOTMA) can influence liposome properties.

[2] = Average zeta potential of liposomes made from cationic silyl lipids (Tables 1A, 1B); assay type: physicochemical
Description: as §1, §2, §3, §4

[3] = Table 1B, sila-DOTMA analog liposomes, two values given
[4] = Table 1A, liposome formulations of the cationic silyl lipid only in Milli Q purified water

Work on `CCCCCCCC[Si](C)(C)CCCCCCOCC(C[N+](C)(C)C)OCCCCCC[Si](C)(C)CCCCCCCC` (centres unmarked) [6, Si, 8-DOTMA] yielded an Avg size [1] of 216 nm and an Avg. zeta Potential [2, 3] of 64 mV.
For `CCCCCCCCCCC[Si](C)(C)CCCCC(=O)OCC(C[N+](C)(C)C)OC(=O)CCCC[Si](C)(C)CCCCCCCCCCC` (centres unmarked) [QP5Si11], the “Avg. Size” value [1] was 59 nm and the “Avg. zeta Potential” value [2, 4] was 60 mV.
In the case of `CCCC[Si](C)(C)CCCCCCCC(=O)OCC(C[N+](C)(C)C)OC(=O)CCCCCCC[Si](C)(C)CCCC` (centres unmarked) [QP8Si4], the “Avg. Size” value [1] is reported as 24 nm and the “Avg. zeta Potential” value [2, 4] is reported as 33 mV and 44 mV.
For `CCCCCC[Si](C)(C)CCCCCCCCCCOCC(C[N+](C)(C)C)OCCCCCCCCCC[Si](C)(C)CCCCCC` (centres unmarked) [10, Si, 6-DOTMA], the Avg size [1] was 65 nm and the Avg. zeta Potential [2, 3] was 52 mV.
With `CCCCCCCC[Si](C)(C)CCCCCCCCOCC(C[N+](C)(C)C)OCCCCCCCC[Si](C)(C)CCCCCCCC` (centres unmarked) [8, Si, 8-DOTMA] the Avg size [1] was 206 nm and the Avg. zeta Potential [2, 3] was 56 mV and 74 mV.
For `CCCC[Si](C)(C)CCCCCCOCC(C[N+](C)(C)C)OCCCCCC[Si](C)(C)CCCC` (centres unmarked) [6, Si, 4-DOTMA], the Avg size [1] was 79 nm and the Avg. zeta Potential [2, 3] was 65 mV.
With `C[N+](C)(C)CC(COC(=O)CCCCCCC[Si](C)(C)c1ccccc1)OC(=O)CCCCCCC[Si](C)(C)c1ccccc1` (centres unmarked) [QP8SiPh] the “Avg. Size” value [1] was 21 nm and the “Avg. zeta Potential” value [2, 4] was 59 mV and 73 mV.
